Reference: ChEMBL document CHEMBL4219047, “Optimization of peptide-based polyagonists for treatment of diabetes and obesity” (Bioorg Med Chem, 2018)
Where a SMILES comes first, the peptide text is derived from it.

How the values were obtained:
Assay type in all cases: functional, cell-based
[1] = target: T1, Glucagon-like peptide 1 receptor (Homo sapiens, UniProt P43220); assay: Agonist activity at human GLP1 receptor expressed in HEK293 cells assessed as increase in cAMP level after 5 hrs by CRE driven luciferase reporter gene assay
T1 sequence (P43220 whole entry): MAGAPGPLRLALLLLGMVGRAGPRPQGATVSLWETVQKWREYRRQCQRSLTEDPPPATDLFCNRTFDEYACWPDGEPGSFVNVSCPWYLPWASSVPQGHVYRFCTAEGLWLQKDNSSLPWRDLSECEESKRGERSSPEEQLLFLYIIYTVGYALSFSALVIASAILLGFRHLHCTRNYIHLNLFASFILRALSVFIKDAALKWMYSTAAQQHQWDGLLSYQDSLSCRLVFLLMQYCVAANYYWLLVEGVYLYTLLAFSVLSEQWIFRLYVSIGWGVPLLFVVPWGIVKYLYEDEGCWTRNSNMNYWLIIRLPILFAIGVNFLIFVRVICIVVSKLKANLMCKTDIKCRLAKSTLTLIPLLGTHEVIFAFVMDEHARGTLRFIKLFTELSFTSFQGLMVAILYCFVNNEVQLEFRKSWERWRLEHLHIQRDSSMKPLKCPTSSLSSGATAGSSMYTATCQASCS

Glucagon receptor [2] = target: T2, Glucagon receptor (Homo sapiens, UniProt P47871); assay: Agonist activity at human GCG receptor expressed in HEK293 cells assessed as increase in cAMP level after 5 hrs by CRE driven luciferase reporter gene assay
T2 sequence (P47871 whole entry): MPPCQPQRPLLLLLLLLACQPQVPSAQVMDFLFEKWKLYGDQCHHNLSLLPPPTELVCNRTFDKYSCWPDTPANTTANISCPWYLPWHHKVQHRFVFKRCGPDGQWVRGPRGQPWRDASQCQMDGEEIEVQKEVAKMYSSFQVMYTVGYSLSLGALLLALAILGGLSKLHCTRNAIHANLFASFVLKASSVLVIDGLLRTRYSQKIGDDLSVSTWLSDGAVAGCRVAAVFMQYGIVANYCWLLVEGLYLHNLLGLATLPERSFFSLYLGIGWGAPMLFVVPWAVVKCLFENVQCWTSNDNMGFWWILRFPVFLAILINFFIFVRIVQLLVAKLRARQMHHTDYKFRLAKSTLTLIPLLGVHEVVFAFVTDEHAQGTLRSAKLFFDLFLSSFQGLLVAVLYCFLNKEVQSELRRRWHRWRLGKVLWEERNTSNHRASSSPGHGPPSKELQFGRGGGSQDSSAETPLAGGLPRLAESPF

[3] = target: T3, Gastric inhibitory polypeptide receptor (Homo sapiens, UniProt P48546); assay: Agonist activity at human GIP receptor expressed in HEK293 cells assessed as increase in cAMP level after 5 hrs by CRE driven luciferase reporter gene assay
T3 sequence (P48546 whole entry): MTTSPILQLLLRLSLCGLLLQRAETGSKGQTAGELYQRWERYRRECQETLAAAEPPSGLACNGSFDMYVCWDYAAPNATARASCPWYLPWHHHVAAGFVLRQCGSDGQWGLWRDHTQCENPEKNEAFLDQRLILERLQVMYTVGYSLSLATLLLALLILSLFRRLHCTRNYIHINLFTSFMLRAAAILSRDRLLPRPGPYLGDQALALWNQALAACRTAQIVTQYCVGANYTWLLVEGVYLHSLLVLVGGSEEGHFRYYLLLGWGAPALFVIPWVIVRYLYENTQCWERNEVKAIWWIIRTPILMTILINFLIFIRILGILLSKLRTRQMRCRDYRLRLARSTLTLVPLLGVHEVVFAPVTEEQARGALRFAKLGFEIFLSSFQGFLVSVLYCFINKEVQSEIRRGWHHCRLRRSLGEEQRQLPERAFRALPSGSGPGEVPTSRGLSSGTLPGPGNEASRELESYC

[4] = target: T1, Glucagon-like peptide 1 receptor; assay: Agonist activity at human GLP1 receptor expressed in HEK293 cells assessed as increase in cAMP level after 5 hrs by CRE driven luciferase reporter gene assay relative to GLP1; parameters: concentration or dose not given beside the values
Glucagon receptor [5] = target: T2, Glucagon receptor; assay: Agonist activity at human GCG receptor expressed in HEK293 cells assessed as increase in cAMP level after 5 hrs by CRE driven luciferase reporter gene assay relative to glucagon
[6] = target: T4, Gastric inhibitory polypeptide receptor (Homo sapiens) (UniProt P48546); assay: Agonist activity at human GIP receptor expressed in HEK293 cells assessed as increase in cAMP level after 5 hrs by CRE driven luciferase reporter gene assay relative to GIP; parameters: concentration or dose not given beside the values
T4 sequence (whole entry): T3 sequence (P48546 whole entry)

EC50 [1]	EC50 (Glucagon receptor [2])	EC50 [3]	Activity [4]	Activity (Glucagon receptor [5])	Activity [6]	Structure (SMILES)
0.14 nM	0.15 nM	5.53 nM	20%	21%	0%	CC[C@H](C)[C@H](NC(=O)[C@H](Cc1ccccc1)NC(=O)[C@H](CCC(=O)O)NC(=O)[C@@H]1CCCCNC(=O)CC[C@H](NC(=O)[C@H](CC(=O)O)NC(=O)[C@H](CC(C)C)NC(=O)[C@H](Cc2ccc(O)cc2)NC(=O)[C@H](CCCCN)NC(=O)[C@H](CO)NC(=O)[C@H](Cc2ccc(O)cc2)NC(=O)[C@H](CC(=O)O)NC(=O)[C@H](CO)NC(=O)[C@@H](NC(=O)[C@H](Cc2ccccc2)NC(=O)[C@@H](NC(=O)CNC(=O)[C@H](CCC(N)=O)NC(=O)[C@H](CO)NC(=O)[C@@H](N)Cc2cnc[nH]2)[C@@H](C)O)[C@@H](C)O)C(=O)N[C@@H]([C@@H](C)CC)C(=O)N[C@@H](Cc2cnc[nH]2)C(=O)N[C@@H](CCC(N)=O)C(=O)N1)C(=O)N[C@@H](C)C(=O)N[C@@H](Cc1c[nH]c2ccccc12)C(=O)N[C@@H](CC(C)C)C(=O)N[C@@H](CCSC)C(=O)N[C@@H](CC(N)=O)C(=O)N[C@H](C(N)=O)[C@@H](C)O
0.003 nM	0.003 nM	3.54 nM	933%	1070%	1%	CCCCCCCCCCCCCCCC(=O)N[C@@H](CCC(=O)NCCCC[C@H](NC(=O)[C@H](CC(=O)O)NC(=O)[C@H](CO)NC(=O)[C@@H](NC(=O)[C@H](Cc1ccccc1)NC(=O)[C@@H](NC(=O)CNC(=O)[C@H](CCC(N)=O)NC(=O)C(C)(C)NC(=O)[C@@H](N)Cc1cnc[nH]1)[C@@H](C)O)[C@@H](C)O)C(=O)N[C@@H](CO)C(=O)N[C@@H](CCCCN)C(=O)N[C@@H](Cc1ccc(O)cc1)C(=O)N[C@@H](CC(C)C)C(=O)N[C@@H](CC(=O)O)C(=O)N[C@@H](CCC(=O)O)C(=O)N[C@@H](CCC(N)=O)C(=O)N[C@@H](C)C(=O)N[C@@H](C)C(=O)N[C@@H](CCCCN)C(=O)N[C@@H](CCC(=O)O)C(=O)N[C@@H](Cc1ccccc1)C(=O)N[C@H](C(=O)N[C@@H](C)C(=O)N[C@@H](Cc1c[nH]c2ccccc12)C(=O)N[C@@H](CC(C)C)C(=O)N[C@@H](CC(C)C)C(=O)N[C@@H](CC(=O)O)C(=O)N[C@H](C(N)=O)[C@@H](C)O)[C@@H](C)CC)C(=O)O
0.022 nM	0.031 nM	6.26 nM	127%	103%	0%	CC[C@H](C)[C@H](NC(=O)[C@H](Cc1ccccc1)NC(=O)[C@H](CCC(=O)O)NC(=O)[C@H](CCCCN)NC(=O)[C@H](C)NC(=O)[C@H](C)NC(=O)[C@H](CCC(N)=O)NC(=O)[C@H](CCC(=O)O)NC(=O)[C@H](CC(=O)O)NC(=O)[C@H](CC(C)C)NC(=O)[C@H](Cc1ccc(O)cc1)NC(=O)[C@H](CCCCN)NC(=O)[C@H](CO)NC(=O)[C@H](Cc1ccc(O)cc1)NC(=O)[C@H](CC(=O)O)NC(=O)[C@H](CO)NC(=O)[C@@H](NC(=O)[C@H](Cc1ccccc1)NC(=O)[C@@H](NC(=O)CNC(=O)[C@H](CCC(N)=O)NC(=O)[C@H](CO)NC(=O)[C@@H](N)Cc1cnc[nH]1)[C@@H](C)O)[C@@H](C)O)C(=O)N[C@@H](C)C(=O)N[C@@H](Cc1c[nH]c2ccccc12)C(=O)N[C@@H](CC(C)C)C(=O)N[C@@H](CCSC)C(=O)N[C@@H](CC(N)=O)C(=O)N[C@H](C(N)=O)[C@@H](C)O (H-HSQGTFTSDYSKYLDEQAAKEFIAWLMNT-NH2)
–	–	–	1400%	800%	2%	CCCCCCCCCCCCCCCC(=O)N[C@@H](CCC(=O)NCCCC[C@H](NC(=O)[C@H](CC(=O)O)NC(=O)[C@H](CO)NC(=O)[C@@H](NC(=O)[C@H](Cc1ccccc1)NC(=O)[C@@H](NC(=O)CNC(=O)[C@H](CCC(N)=O)NC(=O)[C@@H](CO)NC(=O)[C@@H](N)Cc1cnc[nH]1)[C@@H](C)O)[C@@H](C)O)C(=O)N[C@@H](CO)C(=O)N[C@@H](CCCCN)C(=O)N[C@@H](Cc1ccc(O)cc1)C(=O)N[C@@H](CC(C)C)C(=O)N[C@@H](CC(=O)O)C(=O)N[C@@H](CCC(=O)O)C(=O)N[C@@H](CCCNC(=N)N)C(=O)N[C@@H](C)C(=O)N[C@@H](C)C(=O)N[C@@H](CCC(N)=O)C(=O)N[C@@H](CC(=O)O)C(=O)N[C@@H](Cc1ccccc1)C(=O)N[C@H](C(=O)N[C@@H](CCC(N)=O)C(=O)N[C@@H](Cc1c[nH]c2ccccc12)C(=O)N[C@@H](CC(C)C)C(=O)N[C@@H](CC(C)C)C(=O)N[C@@H](CC(=O)O)C(=O)NCC(=O)N[C@@H](CCCNC(=N)N)C(=O)NCC(N)=O)C(C)C)C(=O)O
0.039 nM	0.041 nM	2.69 nM	72%	78%	1%	CCCCCCCCCCCCCCCC(=O)N[C@@H](CCC(=O)NCCCC[C@H](NC(=O)[C@H](CC(=O)O)NC(=O)[C@H](CO)NC(=O)[C@@H](NC(=O)[C@H](Cc1ccccc1)NC(=O)[C@@H](NC(=O)CNC(=O)[C@H](CCC(N)=O)NC(=O)[C@@H](CO)NC(=O)[C@@H](N)Cc1cnc[nH]1)[C@@H](C)O)[C@@H](C)O)C(=O)N[C@@H](CO)C(=O)N[C@@H](CCCCN)C(=O)N[C@@H](Cc1ccc(O)cc1)C(=O)N[C@@H](CC(C)C)C(=O)N[C@@H](CC(=O)O)C(=O)N[C@@H](CCC(=O)O)C(=O)N[C@@H](CCC(N)=O)C(=O)N[C@@H](C)C(=O)N[C@@H](C)C(=O)N[C@@H](CCCCN)C(=O)N[C@@H](CCC(=O)O)C(=O)N[C@@H](Cc1ccccc1)C(=O)N[C@H](C(=O)N[C@@H](C)C(=O)N[C@@H](Cc1c[nH]c2ccccc12)C(=O)N[C@@H](CC(C)C)C(=O)N[C@@H](CCSC)C(=O)N[C@@H](CC(N)=O)C(=O)N[C@H](C(N)=O)[C@@H](C)O)[C@@H](C)CC)C(=O)O
0.068 nM	0.005 nM	2.03 nM	41%	640%	1%	CCCCCCCCCCCCCCCC(=O)N[C@@H](CCC(=O)NCCCC[C@H](NC(=O)[C@H](CC(=O)O)NC(=O)[C@H](CO)NC(=O)[C@@H](NC(=O)[C@H](Cc1ccccc1)NC(=O)[C@@H](NC(=O)CNC(=O)[C@H](CCC(N)=O)NC(=O)C(C)(C)NC(=O)[C@@H](N)Cc1cnc[nH]1)[C@@H](C)O)[C@@H](C)O)C(=O)N[C@@H](CO)C(=O)N[C@@H](CCCCN)C(=O)N[C@@H](Cc1ccc(O)cc1)C(=O)N[C@@H](CC(C)C)C(=O)N[C@@H](CC(=O)O)C(=O)N[C@@H](CCC(=O)O)C(=O)N[C@@H](CCCNC(=N)N)C(=O)N[C@@H](C)C(=O)N[C@@H](C)C(=O)N[C@@H](CCC(N)=O)C(=O)N[C@@H](CC(=O)O)C(=O)N[C@@H](Cc1ccccc1)C(=O)N[C@H](C(=O)N[C@@H](CCC(N)=O)C(=O)N[C@@H](Cc1c[nH]c2ccccc12)C(=O)N[C@@H](CC(C)C)C(=O)N[C@@H](CC(C)C)C(=O)N[C@@H](CC(=O)O)C(=O)N[C@H](C(N)=O)[C@@H](C)O)C(C)C)C(=O)O
0.004 nM	–	0.133 nM	700%	457%	15%	CCCCCCCCCCCCCCCC(=O)N[C@@H](CCC(=O)NCCCC[C@H](NC(=O)[C@H](CC(=O)O)NC(=O)[C@H](CO)NC(=O)[C@@H](NC(=O)[C@H](Cc1ccccc1)NC(=O)[C@@H](NC(=O)CNC(=O)[C@H](CCC(N)=O)NC(=O)C(C)(C)NC(=O)[C@@H](N)Cc1cnc[nH]1)[C@@H](C)O)[C@@H](C)O)C(=O)N[C@@H](CO)C(=O)N[C@@H](CCCCN)C(=O)N[C@@H](Cc1ccc(O)cc1)C(=O)N[C@@H](CC(C)C)C(=O)N[C@@H](CC(=O)O)C(=O)N[C@@H](CCC(=O)O)C(=O)N[C@@H](CCCNC(=N)N)C(=O)N[C@@H](C)C(=O)N[C@@H](C)C(=O)N[C@@H](CCC(N)=O)C(=O)N[C@@H](CC(=O)O)C(=O)N[C@@H](Cc1ccccc1)C(=O)N[C@H](C(=O)N[C@@H](CCC(N)=O)C(=O)N[C@@H](Cc1c[nH]c2ccccc12)C(=O)N[C@@H](CC(C)C)C(=O)N[C@@H](CC(C)C)C(=O)N[C@@H](CC(=O)O)C(=O)NCC(=O)N[C@@H](CCCNC(=N)N)C(=O)NCC(N)=O)C(C)C)C(=O)O
0.04 nM	0.009 nM	–	70%	356%	1%	CCCCCCCCCCCCCCCC(=O)N[C@@H](CCC(=O)NCCCC[C@H](NC(=O)[C@H](CC(=O)O)NC(=O)[C@H](CO)NC(=O)[C@@H](NC(=O)[C@H](Cc1ccccc1)NC(=O)[C@@H](NC(=O)CNC(=O)[C@H](CCC(N)=O)NC(=O)[C@@H](C)NC(=O)[C@@H](N)Cc1cnc[nH]1)[C@@H](C)O)[C@@H](C)O)C(=O)N[C@@H](CO)C(=O)N[C@@H](CCCCN)C(=O)N[C@@H](Cc1ccc(O)cc1)C(=O)N[C@@H](CC(C)C)C(=O)N[C@@H](CC(=O)O)C(=O)N[C@@H](CCC(=O)O)C(=O)N[C@@H](CCCNC(=N)N)C(=O)N[C@@H](C)C(=O)N[C@@H](C)C(=O)N[C@@H](CCC(N)=O)C(=O)N[C@@H](CC(=O)O)C(=O)N[C@@H](Cc1ccccc1)C(=O)N[C@H](C(=O)N[C@@H](CCC(N)=O)C(=O)N[C@@H](Cc1c[nH]c2ccccc12)C(=O)N[C@@H](CC(C)C)C(=O)N[C@@H](CC(C)C)C(=O)N[C@@H](CC(=O)O)C(=O)N[C@H](C(N)=O)[C@@H](C)O)C(C)C)C(=O)O
